# Laboratory results as given in patent publication US12516019B2, “Amphoteric compounds” (Eastman Chemical Company, priority 2015, dated 2026).
# How the values were obtained:
# [1] = Foam height test, Standard Test Method for Foaming Properties of Surface-Active Agents (ASTM 1173-07); assay type: physicochemical; conditions: 49° C.; for Foam height at time t = 0: t = 0 min; for Foam height at time t = 1: t = 1 min; for Foam height at time t = 2: t = 2 min; for Foam height at time t = 3: t = 3 min; for Foam height at time t = 4: t = 4 min; for Foam height at time t = 5: t = 5 min
# From the text: The Standard Test Method for Foaming Properties of Surface-Active Agents (ASTM 1173-07) for 0.1 wt % and 1.0 wt % was used to determine the foaming properties of the amphoteric compounds of the formula 1 described herein. This method generates foam under low-agitation conditions and is generally used for moderate- and high-foam surfactants. This test gathers data on initial foam height and foam decay. Foam decay provides information on foam stability.
# The apparatus for carrying out this test includes a jacketed column and a pipet. The jacketed column serves as a receiver, while the pipet delivers the surface-active solution.
# Solutions of each surface-active agent to be measured were prepared in borosilicate glass jars a day ahead of time, using ambient temperature ingredients, and were slowly rolled overnight to homogenize. The solutions were then removed from the rollers and equilibrated in a constant temperature bath (49° C.+/−1° C.) for at least 1 hour before measurement. The solution of the amphoteric compound to be tested was added to the receiver (50 mL) and to the pipet (200 mL). The pipet was positioned above the receiver and opened. As the solution fell and made contact with the solution in the receiver, foam was generated. When the pipet was empty, the time was noted and an initial foam height was recorded. The foam height was recorded each minute for five minutes. Exact size specifications for the glassware can be found in ASTM 1173-07. The foam height results for each amphoteric compound 1 and representative standards are listed below in Tables 1 (0.1% concentration) and 2 (1% concentration).
# [2] = Critical micelle concentration from surface tension (Wilhelmy plate, K100C Tensiometer); assay type: physicochemical; conditions: deionized water, ambient temperature
# Procedure: The critical micelle concentration (CMC) is an important characteristic of a surfactant, and the CMC values were determined for the amphoteric compounds of formula 1. The CMC is defined as the concentration at which micelle formation first begins, and for surface tension determination of CMC, is typically assigned as the concentration of the intersection of two straight lines through the data, where the first line is the linear portion of the initial decline in surface tension with increasing surfactant concentration, and the second is the line of constant surface tension.
# The critical micelle concentration was determined from plots of surface tension as a function of the logarithm of active surfactant concentration. Surface tension was measured via the Wilhelmy plate technique. In this method, the downward force of a rigorously clean plate probe that just contacts the liquid surface of the test sample is measured, and the surface tension is calculated from knowledge of the contact angle the liquid makes with the probe surface and the length of the probe plate.
# A K100C Tensiometer (Kruss GmbH) was used to measure surface tension of solutions in a glass sample vessel. All measurements were made under ambient temperature conditions.
# The tensiometer was equipped with a computer-controlled microdispensing and aspirating system to automate surfactant concentration adjustments of the test solution while maintaining constant solution volume between successive measurements. A roughened platinum plate probe was used. Cleanliness of probe, sample vessel, and microdispensing system was verified after cleaning between samples by measuring the surface tension of pure deionized water run through the system as a control.
# 100 mL of the 1 mg/L surfactant solution was added to the clean sample vessel and placed in the instrument. The plate probe was rinsed with deionized water and flame treated to combust off residual organic impurities, then mounted in position in the tensiometer. The experiment was initiated and run through the LabDesk version 3.2.2 (Kruss GmbH) software.
# The surface tension measurements were run sequentially (and automatically) from most dilute to most concentrated by incrementally injecting known volume aliquots of the 10,000 mg/L surfactant solution into the sample, homogenizing the sample after injection by stirring for 30 seconds via a magnetic stir bar in the solution, and then aspirating out equal volume that was added to the sample vessel to keep the total sample volume constant for each measurement.
# The sample vessel was then automatically moved into measurement position, and the surface tension measurement was made and recorded. This sequence was repeated until all concentrations had been measured.
# The active surfactant concentration range spanned from 1 mg/L to 5000 mg/L over 50 concentration increments, equally spaced on a logarithmic scale over the full range of concentrations measured.
# The sample at each concentration was measured 10 times, and the average of the 10 measures was plotted against the logarithm of the surfactant concentration.
# After completing the full range of concentrations, the software provided best-fit lines to estimate CMC, and these regression lines were manually adjusted as needed to give the broadest range of linear behavior for each line.
Compound,Foam height at time t = 0 ([1]; 1 g/L (0.1 weight %)),Foam height at time t = 1 ([1]; 1 g/L (0.1 weight %)),Foam height at time t = 2 ([1]; 1 g/L (0.1 weight %)),Foam height at time t = 3 ([1]; 1 g/L (0.1 weight %)),Foam height at time t = 4 ([1]; 1 g/L (0.1 weight %)),Foam height at time t = 5 ([1]; 1 g/L (0.1 weight %)),Foam height at time t = 0 ([1]; 10 g/L (1.0 weight %)),Foam height at time t = 1 ([1]; 10 g/L (1.0 weight %)),Foam height at time t = 2 ([1]; 10 g/L (1.0 weight %)),Foam height at time t = 3 ([1]; 10 g/L (1.0 weight %)),Foam height at time t = 4 ([1]; 10 g/L (1.0 weight %)),Foam height at time t = 5 ([1]; 10 g/L (1.0 weight %)),Critical micelle concentration (CMC) [2]
(4-Laurylamino-4-oxobutyl)dimethylammonioacetate [Example 11],174 mm,172 mm,171 mm,171 mm,170 mm,170 mm,182 mm,180 mm,179 mm,178 mm,178 mm,177 mm,76.5 mg/L
(3-Lauryloxycarbonylpropyl)dimethylammonioacetate [Example 3],171 mm,170 mm,170 mm,169 mm,169 mm,169 mm,165 mm,162 mm,160 mm,158 mm,158 mm,156 mm,24.2 mg/L
(4-Lauryloxycarbonylbutyl)dimethylammonioacetate [Example 8],–,–,–,–,–,–,185 mm,175 mm,170 mm,170 mm,170 mm,165 mm,–
"CCCCCCCCCCCCOC(=O)CCCC[N+](C)(C)CC(O)CS(=O)(=O)[O-] (stereo not shown) [Example 9, 3-(4-(Lauryloxycarbonylbutyl)dimethylammonio)-2-hydroxypropanesulfonate]",185 mm,175 mm,173 mm,170 mm,170 mm,170 mm,195 mm,190 mm,180 mm,180 mm,180 mm,180 mm,–
"CCCCCCCCCCCCOC(=O)CCC[N+](C)(C)CC(O)CS(=O)(=O)[O-] (stereo not shown) [Example 4, 3-(3-(Lauryloxycarbonylpropyl)dimethylammonio)-2-hydroxypropanesulfonate]",142 mm,139 mm,135 mm,132 mm,129 mm,127 mm,173 mm,170 mm,167 mm,162 mm,158 mm,154 mm,–

# Further lines, results first:
Foam height at time t = 0 ([1]; 1 g/L (0.1 weight %)),Foam height at time t = 1 ([1]; 1 g/L (0.1 weight %)),Foam height at time t = 2 ([1]; 1 g/L (0.1 weight %)),Foam height at time t = 3 ([1]; 1 g/L (0.1 weight %)),Foam height at time t = 4 ([1]; 1 g/L (0.1 weight %)),Foam height at time t = 5 ([1]; 1 g/L (0.1 weight %)),Foam height at time t = 0 ([1]; 10 g/L (1.0 weight %)),Foam height at time t = 1 ([1]; 10 g/L (1.0 weight %)),Foam height at time t = 2 ([1]; 10 g/L (1.0 weight %)),Foam height at time t = 3 ([1]; 10 g/L (1.0 weight %)),Foam height at time t = 4 ([1]; 10 g/L (1.0 weight %)),Foam height at time t = 5 ([1]; 10 g/L (1.0 weight %)),Critical micelle concentration (CMC) [2],Compound
180 mm,175 mm,170 mm,170 mm,170 mm,170 mm,175 mm,170 mm,170 mm,170 mm,165 mm,160 mm,–,(5-Laurylamino-5-oxopentyl)dimethylammonioacetate [Example 20]
157 mm,156 mm,153 mm,151 mm,149 mm,147 mm,173 mm,171 mm,170 mm,170 mm,170 mm,169 mm,104.5 mg/L,"CCCCCCCCCCCCNC(=O)CCCC[N+](C)(C)CC(O)CS(=O)(=O)[O-] (stereo not shown) [Example 21, 3-((5-laurylamino-5-oxopentyl)dimethylammonio)-2-hydroxypropanesulfonate]"
160 mm,159 mm,158 mm,158 mm,158 mm,158 mm,174 mm,172 mm,171 mm,171 mm,170 mm,170 mm,12.7 mg/L,cocamidopropyl betaine [reference compound]
–,–,–,–,–,–,–,–,–,–,–,–,9.5 mg/L,cocamidopropyl hydroxysultaine [reference compound]
–,–,–,–,–,–,–,–,–,–,–,–,962 mg/L,"CCCCCCCCCCCC[N+](C)(C)CCCS(=O)(=O)[O-] [N-lauryl-N,N-dimethyl-3-ammonio-1-propanesulfonate, reference compound]"
160 mm,157 mm,155 mm,153 mm,151 mm,150 mm,182 mm,180 mm,178 mm,177 mm,176 mm,175 mm,80.9 mg/L,"CCCCCCCCCCCCNC(=O)CCC[N+](C)(C)CC(O)CS(=O)(=O)[O-] (stereo not shown) [Example 12, 3-((4-laurylamino-4-oxobutyl)dimethylammonio)-2-hydroxy-propanesulfonate]"
